# Measured values taken from patent US6187783A, “Phenanthridinium derivatives” (Nippon Kayaku Kabushiki Kaisha, priority 1996, dated 2001).
# Read-outs that look alike come from different tables or passages of the source.
# How the values were obtained:
# [1] = Chemical reduction with sodium cyanoborohydride; format: physicochemical
# Protocol: (§1) In addition, when an in vitro metabolic test using liver homogenate (S9) prepared from human liver was performed with reference to the method described in Arch. […] This product coincided with the reduced product formed by the chemical reduction described above.
# (§2) 2,3-(Methylenedioxy)-7-hydroxy-8-methoxy-5,6-propano-benzo[c]phenanthridinium chloride, which is one of the compounds of the present invention, was treated with sodium cyanoborohydride in an aqueous solution at room temperature.
# The compound of the present invention (0.1 mg/mL aqueous solution, 0.1 mL) was diluted with methanol (1.0 mL). An aqueous solution of sodium cyanoborohydride (4 mg/mL, 0.02 mL) was added to the solution. The mixture was allowed to stand at room temperature. The reaction was terminated by adding 1% aqueous phosphoric acid (1 mL) thereto. The residual amount of the compound was determined by high performance liquid chromatography. As a control, 2,3-(methylenedioxy)-5-methyl-7-hydroxy-8-methoxy-benzo[c]phenanthridiniumhydrogensulfate was similarly reacted.
# [2] = system: Mouse leukemia cells P388; experiment: Antitumor effect on cancer cells in vivo (P388 leukemia, survival); set-up: species or system mouse (female CDF1 mice); details: i.v. single administration; for Survived Days: P388 in female CDF1 mice; for Effect (T/C %): ratio of survival days to median of control group
# Protocol: 2. Antitumor effect on cancer cells in vivo
# Mouse leukemia cells P388 was intravenously injected to female CDF1 mice of 6 weeks old in a dose of 10^5 cells/mouse. A 5% glucose aqueous solution of 2,3-(methylenedioxy)-7-hydroxy-8-methoxy-5,6-propano-benzo[c]phenanthridinium chloride (Compound No. A-4 of the present invention, (X^- =Cl^-)) was intravenously injected by single administration on the day following the tumor transportation. The antitumor effect was evaluated by comparing the ratio (T/C %) of survival days to the median of survival days in the control group (5 mice).
# [3] = system: Human uterus cancer-derived cells HeLa S3; experiment: Growth prevention against cancer cells (72 h contact, Methylene Blue staining); format: cell-based; details: HeLa S3, 72 hours contact, 37° C., read-out: 50% Inhibitory Concentration (IC50)
# Protocol: The compounds of the present invention were examined on the antitumor activity, and the thus obtained results are shown below.
# 1. Growth prevention against cancer cells
# Human uterus cancer-derived cells HeLa S3 were incubated at 37° C. for 24 hours in 5% CO2. A test compound was then brought into contact with the cells for 72 hours. Then, the cells were stained with 0.05% Methylene Blue. The pigment was extracted from the stained cells. The growth inhibition of the cells were determined based on absorbance at 660 nm to calculate 50% growth inhibitory concentration (IC50).
# [4] = In vitro metabolic test using liver homogenate (S9); format: in vitro ADME, human
# Protocol: as §1, §2
# [5] = system: female CDF1 mice; experiment: Acute toxicity by intravenous injection; format: in vivo, mouse (female CDF1 mice); details: female CDF1 mice of 6 weeks old
# Protocol: The acute toxicity was assessed by intravenous injection of 2,3-(methylenedioxy)-7-hydroxy-8-methoxy-5,6-propano-benzo[c]phenanthridinium chloride (Compound No. A-4 of the present invention, (X^- =Cl^-)) to female CDF1 mice of 6 weeks old.
# [6] = aqueous sodium cyanoborohydride
Compound,"Amount of Compound remained after Reduction [1, 6]",Survived Days ([2]; 25 mg/kg/day),Effect (T/C %) ([2]; 25 mg/kg/day),Survived Days ([2]; 50 mg/kg/day),Effect (T/C %) ([2]; 50 mg/kg/day),Survived Days ([2]; 75 mg/kg/day),Effect (T/C %) ([2]; 75 mg/kg/day),Survived Days ([2]; 100 mg/kg/day),Effect (T/C %) ([2]; 100 mg/kg/day),IC50 [3],Production of metabolite [4],Acute toxicity (survival) [5],"Disappearance on treatment with sodium cyanoborohydride ([1]; aqueous solution, room temperature)","Amount of Compound remained after Reduction ([1]; sodium cyanoborohydride, room temperature, terminated with phosphoric acid, HPLC)","Production of metabolite ([4]; in vitro, liver homogenate (S9) prepared from human liver)"
"COc1ccc2c(c1O)c1[n+](c3c4cc5c(cc4ccc23)OCO5)CCC1 [Compound No. A-4, 2,3-(methylenedioxy)-7-hydroxy-8-methoxy-5,6-propano-benzo[c]phenanthridinium chloride]",50,14 days,167%,21 days,250%,> 30 days,> 357%,> 30 days,> 357%,170 nM,no metabolite was produced,"survived even in a dose of 100 mg/kg, without showing any death",,,
"COc1ccc2c(c1O)c1[n+](c3c4cc5c(cc4ccc23)OCO5)CCCC1 [Compound No. A-7, 2,3-(methylenedioxy)-7-hydroxy-8-methoxy-5,6-butano-benzo[c]phenanthridinium chloride]",100,,,,,,,,,5600 nM,,,,,
"COc1ccc2c(c[n+](C)c3c4cc5c(cc4ccc23)OCO5)c1O [Control, 2,3-(methylenedioxy)-5-methyl-7-hydroxy-8-methoxy-benzo[c]phenanthridiniumhydrogensulfate, reference compound]",,,,,,,,,,,,,the phenanthridinium is lost in a few minutes,0,production of the metabolite was observed
